In this test the test system is 967376-340-R-J2-PDC multicell spheroid viability. The experiment in a line: Anticancer human tumor 967376-340-R-J2-PDC patient-derived colon adenocarcinoma cell line growth inhibition [PI3K]. The conditions noted are these: for viability, T/C: stronger effect = lower value; for IC50: curve of compound. The source says: Combinatorial screen of targeted agents with the PI3K inhibitors inavolisib, alpelisib, duvelisib, and copanlisib in multi-cell type tumor spheroids
A high-throughput screen of multi-cell type tumor spheroids was designed to identify active combinations of targeted small molecules and PI3K pathway inhibitors. Complex spheroids include a stromal component modeled by human endothelial cells (HUVEC) and fibroblasts modeled by human mesenchymal stem cells (MSCs). The concentration ranges selected for each drug and investigational agent were based upon clinically achievable concentrations if the clinical Cmax of the agent was known.
Compounds. The drugs and investigational agents: inavolisib (NSC800729), alpelisib (NSC765974), duvelisib (NSC772469), copanlisib (NSC816437), ipatasertib (NSC767898), afuresertib (NSC778305), talazoparib (NSC767125), sapanisertib (NSC764658), selumetinib (NSC741078), tovorafenib (DAY101, NSC766906), vemurafenib (NSC761431), ravoxertinib (NSC781343), sotorasib (NSC818433), MRTX1133 (NSC 836407), abemaciclib (NSC 768073), palbociclib (NSC758247), venetoclax (NSC 766270), SY5609 (NSC837396), enzalutamide (NSC755605), and darolutamide (NSC825331), were obtained from the National Cancer Institute (NCI) Developmental Therapeutics Program Chemical Repository. The FDA-approved anticancer drug set is available from the NCI Developmental Therapeutics Program. […] The stock solutions were prepared in dimethyl sulfoxide (DMSO, Sigma-Aldrich, St. Louis, MO, cat. D2650) at 800-fold the tested concentration and stored at -70 degrees C prior to their use. All drugs and investigational agents were tested over a range starting from a high concentration at or near the clinical Cmax and decreasing in half-log increments. If the clinical Cmax for an agent had not been determined, the highest concentration tested was 10 microM.
Cell Culture. All cells were maintained in an incubator at 37 degrees C and 5% CO2 with 95% humidity. The PDC lines were cultured according to standard operating procedures established by the NCI PDMR (https://pdmr.cancer.gov/sops/default.htm). All PDCs were thawed and cultured in Matrigel-coated flasks prepared with a working solution of 1X Ham's F-12 nutrient mix, without supplementation (Invitrogen, Waltham, MA, cat. 11765054), 100 U/mL penicillin-streptomycin (Invitrogen, cat. 15140122), and 2.5% Matrigel (Corning Inc., Corning, NY, cat. 354248) for the first three passages. The 354836-022-R-J1-PDC, 475296-252-R-J1-PDC, and 997726-040-R-J2-PDC lines were cultured in 6A media, which includes advanced DMEM/F-12 (Thermo Fisher Scientific, cat. 12634028), 10 mM HEPES (Thermo Fisher Scientific, cat. 15630080), 1X GlutaMAX supplement (Thermo Fisher Scientific, cat. 35050061), 0.1 mg/mL primocin (InvivoGen, San Diego, CA, cat. ant-pm-2), 10% defined fetal bovine serum, heat inactivated (HyClone Laboratories Inc., Logan, UT, cat. SH30070.03HI), 50% L-WRN conditioned media (ATCC, cat. CRL-3276), 1.25 mM N-Acetyl-L-cysteine (Sigma-Aldrich, cat. A9165), 10 mM nicotinamide (Sigma-Aldrich, cat. N0636), 1X B-27 supplement (Thermo Fisher Scientific, cat. 17504044), 1X N-2 supplement (Thermo Fisher Scientific, cat. 17502048), and 10 microM Y-27632 dihydrochloride (Tocris Bioscience, Bristol, United Kingdom, cat. 1254). The 624824-186-R-J2-PDC line was cultured in 6C/Colon 1B media, which includes all 6A media components plus 50 ng/mL human EGF recombinant protein (Thermo Fisher Scientific, cat. PHG0311). […]

Values joined by “and” are separate entries in the source; they are usually repeats but may differ in a detail not shown here. Equal values may be shown once.

Drawing on PubChem BioAssay AID1963962 (Molecular Pharmacology Branch, DTP, NCI, 2024), this text covers viability, T/C and IC50 for ten compounds.
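Further: spheroids exposed to agents for 7 days before read-out.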
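Wherever viability, T/C is given: luminescence used as surrogate of cell viability.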

As for `C#Cc1c(F)ccc2cc(O)cc(-c3ncc4c(N5CC6CCC(C5)N6)nc(OCC56CCCN5CC(F)C6)nc4c3F)c12` (stereo not given), the IC50 is > 10 µM. Besides, the viability, T/C (compound 0.0316 µM) was 106% [middle of 4 runs]. Further, under “compound 0.1 µM”, the viability, T/C is 109% and 101% (2×) and 92.1%. For the same compound, the viability, T/C (compound 3.16 µM) was 91.7% [middle of 4 runs].
Take `C=CC(=O)N1CCN(c2nc(=O)n(-c3c(C)ccnc3C(C)C)c3nc(-c4c(O)cccc4F)c(F)cc23)C(C)C1` (stereo not given): the IC50 is > 10 µM. Moreover, the viability, T/C (compound 0.0316 µM) was 106% and 98.1% and 85.1%. Moreover, the viability, T/C (compound 0.1 µM) is 87.2% and 75.8% and 115%. Besides, the viability, T/C (compound 0.316 µM) is 106% and 107% and 86.6%. For the same compound, the viability, T/C (compound 1 µM) was 97.1% and 124% and 96.3%. Moreover, the viability, T/C (compound 3.16 µM) was 119% and 123% and 101%. Besides, the viability, T/C (compound 10 µM) was 112% and 107% and 119%.
Turning to `CC(Cn1ccc(-c2ccc(C#N)c(Cl)c2)n1)NC(=O)c1cc(C(C)O)[nH]n1` (stereo not given), the IC50 was > 10 µM. Also, under “compound 0.0316 µM”, the viability, T/C is 105% [middle of 4 runs]. Also, the viability, T/C (compound 0.1 µM) was 99.6% [middle of 4 runs]. For the same compound, the viability, T/C (compound 0.316 µM) is 101% [middle of 4 runs]. Besides, the viability, T/C (compound 1 µM) was 101% [middle of 4 runs]. Further, the viability, T/C (compound 3.16 µM) was 103% [middle of 4 runs].
Take `CC1(C)CCC(CN2CCN(c3ccc(C(=O)NS(=O)(=O)c4ccc(NCC5CCOCC5)c([N+](=O)[O-])c4)c(Oc4cnc5[nH]ccc5c4)c3)CC2)=C(c2ccc(Cl)cc2)C1`: the IC50 was > 10 µM. Moreover, the viability, T/C (compound 0.0316 µM) was 99.2% [middle of 4 runs]. Besides, the viability, T/C (compound 0.1 µM) is 94.1% [middle of 4 runs]. Also, the viability, T/C (compound 0.316 µM) was 88.6% [middle of 4 runs]. Also, the viability, T/C (compound 1 µM) is 88.1% [middle of 4 runs]. For the same compound, the viability, T/C (compound 3.16 µM) was 89.6% [middle of 4 runs].
With `CC1(C)CCC(Nc2ncc(C(F)(F)F)c(-c3c[nH]c4c(P(C)(C)=O)c(C#N)ccc34)n2)CN1` (stereo not given), the IC50 was 9.93 µM and > 10 µM and 2.51 µM. Moreover, the viability, T/C (compound 0.0316 µM) is 88.9% [middle of 4 runs]. Also, the viability, T/C (compound 0.316 µM) is 73.3% [middle of 4 runs]. Moreover, the viability, T/C (compound 1 µM) was 71.2% [middle of 4 runs]. The viability, T/C (compound 3.16 µM) is 69.4% [middle of 4 runs]. Besides, under “compound 10 µM”, the viability, T/C is 48.1% [middle of 4 runs].
Regarding `CNC(=O)c1ccc(N2C(=S)N(c3ccc(C#N)c(C(F)(F)F)c3)C(=O)C2(C)C)cc1F`, the half-inhibitory concentration (IC50) is > 10 µM. For the setting “compound 0.1 µM”, the viability, T/C was 94.8% (2×) and 84.5% and 88.3%. The viability, T/C (compound 0.316 µM) was 96.1% [middle of 4 runs]. The viability, T/C (compound 1 µM) is 87.2% [middle of 4 runs]. Besides, where the note is “compound 10 µM”, the viability, T/C was 102% [middle of 4 runs].
As for `C[C@@H](NC(=O)c1ncnc(N)c1Cl)c1ncc(C(=O)Nc2cc(C(F)(F)F)c(Cl)cn2)s1`, the IC50 is > 10 µM. Further, where the note is “compound 0.1 µM”, the viability, T/C was 95.8% [middle of 4 runs]. Further, the viability, T/C (compound 0.316 µM) is 94% [middle of 4 runs]. Also, for the setting “compound 1 µM”, the viability, T/C was 110% [middle of 4 runs]. Moreover, where the note is “compound 3.16 µM”, the viability, T/C is 107% [middle of 4 runs]. Besides, under “compound 10 µM”, the viability, T/C was 109% [middle of 4 runs].
Consider `Cc1nc(NC(=O)N2CCCC2C(N)=O)sc1-c1ccnc(C(C)(C)C(F)(F)F)c1` (stereo not given), for which the viability, T/C is, setting by setting: (compound 0.1 µM) 85.3% [middle of 8 runs]; (compound 0.316 µM) 80.7% [middle of 8 runs]; (compound 1 µM) 73.6% [middle of 8 runs]; (compound 3.16 µM) 64.3% [middle of 8 runs]; (compound 10 µM) 45.7% [middle of 8 runs].
With `Cn1ncc(Cl)c1-c1cc(C(=O)NC(CN)Cc2cccc(F)c2)sc1Cl` (stereo not given), the half-inhibitory concentration (IC50) is > 10 µM. Further, the viability, T/C (compound 0.0316 µM) is 107% [middle of 4 runs]. Moreover, the viability, T/C (compound 0.316 µM) is 91.2% [middle of 4 runs]. Further, the viability, T/C (compound 3.16 µM) was 81.3% [middle of 4 runs]. Also, under “compound 10 µM”, the viability, T/C is 76.4% [middle of 4 runs].
In the case of `Cn1nccc1Nc1nccc(-c2ccn(C(CO)c3ccc(Cl)c(F)c3)c(=O)c2)n1` (stereo not given), the concentration for half-maximal inhibition (IC50) is > 10 µM. The viability, T/C (compound 0.0316 µM) is 100% [middle of 4 runs]. For the same compound, where the note is “compound 0.1 µM”, the viability, T/C was 94.5% [middle of 4 runs]. The viability, T/C (compound 0.316 µM) was 101% (2×) and 95.3% and 76.4%. Moreover, where the note is “compound 10 µM”, the viability, T/C is 99.5% [middle of 4 runs].

In general, viability, T/C refers to the ratio of treated to control. The term IC50 denotes the concentration needed to halve the response being measured.
